In article PMC10584170, “Machine learning-based phenotypic imaging to characterise the targetable biology of Plasmodium falciparum male gametocytes for the development of transmission-blocking antimalarials” (PLOS Pathogens, 2023):

Columns and labels:
[1] = test system: P. falciparum male gametocytes; assay: P. falciparum Dual Gamete Formation Assay (PfDGFA), male readout (exflagellation); assay type: cell-based, Plasmodium falciparum NF54; conditions: for Average inhibition male (%): average of replicates; for % inhibition male (individual replicates) R1: replicate R1; for % inhibition male (individual replicates) R3: replicate R3; for % inhibition male (individual replicates) R4: replicate R4; for Activity: hit = >50% inhibition in male or female readout in at least 3 replicates, 0 = no class assigned
How it was run: (§1)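 First, day-14 P. falciparum NF54 gametocytes receive compound for 24 h at 37°C in 1% O2/3% CO2. Next, ookinete medium with Cy3 anti-Pfs25 triggers gametogenesis at 28°C and male exflagellation is imaged. Finally, after 24 h in the dark, Cy3-labelled females are imaged.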

[2] = test system: P. falciparum female gametocytes; assay: P. falciparum Dual Gamete Formation Assay (PfDGFA), female readout (Pfs25-positive female gametes); assay type: cell-based, Plasmodium falciparum NF54; conditions: for Average inhibition female (%): average of replicates; for % inhibition female (individual replicates) R1: replicate R1; for % inhibition female (individual replicates) R3: replicate R3; for % inhibition female (individual replicates) R4: replicate R4
How it was run: as §1

[3] = 2µM, 24h preincubation with gametocytes prior to induction of gametogenesis
[4] = 2µM, 24h preincubation, number of replicates with >50% inhibition in the male readout
[5] = 2µM, 24h preincubation, number of replicates with >50% inhibition in the female readout
[6] = PfDGFA at 2µM, 24h preincubation with gametocytes prior to induction of gametogenesis
[7] = PfDGFA at 2µM, 24h preincubation
[8] = PfDGFA at 2µM, 24h preincubation with gametocytes
[9] = 2µM, 24h preincubation, hits selected on >50% inhibition in the male readout across replicates
[10] = 2µM, 24h preincubation, hits selected on >50% inhibition in the female readout across replicates

COc1cccc(-c2csc(C(=O)NCC3CCN(Cc4ccc(C(C)(C)C)cc4)C3)c2)c1.O=C(O)C(F)(F)F (centres unmarked) [TCMDC-134447]
Average inhibition male (%) [1, 3]: 11.1%
% inhibition male (individual replicates) R1 [1, 3]: 23.9%
% inhibition male (individual replicates) R3 [1, 3]: 12.3%
% inhibition male (individual replicates) R4 [1, 3]: 2.2%
HitlevelM [1, 4]: 0
Average inhibition female (%) [2, 3]: 52.6%
% inhibition female (individual replicates) R1 [2, 3]: 33.4%
% inhibition female (individual replicates) R3 [2, 3]: 31.5%
% inhibition female (individual replicates) R4 [2, 3]: 78.5%
HitlevelF [2, 5]: 2

CCc1ccccc1-c1csc(C(=O)NCC2CCN(Cc3ccc(C(C)(C)C)cc3)C2)c1.O=C(O)C(F)(F)F (centres unmarked) [TCMDC-134448]
Average inhibition male (%) [1, 3]: -3.3%
% inhibition male (individual replicates) R1 [1, 3]: 5.2%
% inhibition male (individual replicates) R3 [1, 3]: -15.7%
% inhibition male (individual replicates) R4 [1, 3]: -8.5%
HitlevelM [1, 4]: 0
Average inhibition female (%) [2, 3]: 31.2%
% inhibition female (individual replicates) R1 [2, 3]: 30.8%
% inhibition female (individual replicates) R3 [2, 3]: 36.1%
% inhibition female (individual replicates) R4 [2, 3]: 25.0%
HitlevelF [2, 5]: 0

COc1cccc(OC)c1CN1CCC(N(C)CCCCCCCCN2CCC(OC(=O)Nc3ccccc3-c3ccccc3)CC2)CC1 [TCMDC-134684]
Average inhibition male (%) [1, 3]: 52.6%
% inhibition male (individual replicates) R1 [1, 3]: 48.0%
% inhibition male (individual replicates) R3 [1, 3]: 25.4%
% inhibition male (individual replicates) R4 [1, 3]: 71.6%
HitlevelM [1, 4]: 2
Average inhibition female (%) [2, 3]: 31.6%
% inhibition female (individual replicates) R1 [2, 3]: 24.1%
% inhibition female (individual replicates) R3 [2, 3]: 24.2%
% inhibition female (individual replicates) R4 [2, 3]: 37.8%
HitlevelF [2, 5]: 0

COc1ccc(NC(=O)[C@H](Cc2ccccc2)Nc2cc(C)nc(NCCc3ccccn3)n2)cc1.O=C(O)C(F)(F)F [TCMDC-134746]
% inhibition male (individual replicates) R1 [1, 6]: -7.8%
% inhibition male (individual replicates) R3 [1, 6]: -30.0%
% inhibition male (individual replicates) R4 [1, 6]: 23.6%
Average inhibition male (%) [1, 7]: -7.4%
% inhibition female (individual replicates) R1 [2, 6]: 14.8%
% inhibition female (individual replicates) R3 [2, 6]: -15.3%
% inhibition female (individual replicates) R4 [2, 6]: -1.8%
Average inhibition female (%) [2, 7]: 1.5%

Cc1cc(N[C@@H](CC(C)C)C(=O)NCc2cccs2)nc(NCCc2cccs2)n1.O=C(O)C(F)(F)F [TCMDC-134815]
% inhibition male (individual replicates) R1 [1, 6]: 11.4%
% inhibition male (individual replicates) R3 [1, 6]: 4.6%
% inhibition male (individual replicates) R4 [1, 6]: 26.9%
Average inhibition male (%) [1, 7]: 17.0%
% inhibition female (individual replicates) R1 [2, 6]: 9.6%
% inhibition female (individual replicates) R3 [2, 6]: -33.2%
% inhibition female (individual replicates) R4 [2, 6]: 28.8%
Average inhibition female (%) [2, 7]: 0.8%

CN1CCC(NCc2cccc(-c3nn(C)c4nc(NC5CCCC5)ncc34)c2)CC1 [TCMDC-134840]
Average inhibition male (%) [1, 8]: 82.7%
% inhibition male (individual replicates) R1 [1, 8]: 90.3%
% inhibition male (individual replicates) R3 [1, 8]: 59.9%
% inhibition male (individual replicates) R4 [1, 8]: 92.2%
HitlevelM ([1]; number of replicates with >50% inhibition in the male readout, 2µM): 4
Average inhibition female (%) [2, 8]: 22.7%
% inhibition female (individual replicates) R1 [2, 8]: 22.9%
% inhibition female (individual replicates) R3 [2, 8]: 25.6%
% inhibition female (individual replicates) R4 [2, 8]: 7.8%
HitlevelF ([2]; number of replicates with >50% inhibition in the female readout, 2µM): 0

COc1ccc(NC(=O)[C@H](CC(C)C)Nc2cc(C)nc(NCc3ccccc3C)n2)cc1.O=C(O)C(F)(F)F [TCMDC-134909]
Average inhibition male (%) [1, 3]: 9.0%
% inhibition male (individual replicates) R1 [1, 3]: 15.3%
% inhibition male (individual replicates) R3 [1, 3]: -6.1%
% inhibition male (individual replicates) R4 [1, 3]: 18.9%
HitlevelM [1, 9]: 0
Activity [1, 7]: 0
Average inhibition female (%) [2, 3]: 7.3%
% inhibition female (individual replicates) R1 [2, 3]: 5.6%
% inhibition female (individual replicates) R3 [2, 3]: -14.2%
% inhibition female (individual replicates) R4 [2, 3]: 28.8%
HitlevelF [2, 10]: 0

NS(=O)(=O)c1cccc(Nc2nc(N[C@@H]3CCNC3)nc3cc[nH]c(=O)c23)c1.O=C(O)C(F)(F)F [TCMDC-135057]
Average inhibition male (%) [1, 3]: -3.6%
% inhibition male (individual replicates) R1 [1, 3]: -10.0%
% inhibition male (individual replicates) R4 [1, 3]: -11.4%
HitlevelM [1, 9]: 0
Activity [1, 7]: 0
Average inhibition female (%) [2, 3]: 3.8%
% inhibition female (individual replicates) R1 [2, 3]: 4.1%
% inhibition female (individual replicates) R3 [2, 3]: 1.9%
% inhibition female (individual replicates) R4 [2, 3]: 9.1%
HitlevelF [2, 10]: 0

COc1ccccc1CNc1ccnc(N2CC(Oc3ccc(F)cc3)C2)n1 [TCMDC-135118]
% inhibition male (individual replicates) R1 [1, 6]: 9.0%
% inhibition male (individual replicates) R3 [1, 6]: -43.0%
% inhibition male (individual replicates) R4 [1, 6]: 42.2%
Average inhibition male (%) [1, 7]: 10.3%
% inhibition female (individual replicates) R1 [2, 6]: 24.5%
% inhibition female (individual replicates) R3 [2, 6]: -33.1%
% inhibition female (individual replicates) R4 [2, 6]: 4.4%
Average inhibition female (%) [2, 7]: 3.5%

CN1CCN(CC2(Nc3nccc(NCCc4cn(C)c5ccccc45)n3)CCCCC2)CC1 [TCMDC-135122]
Average inhibition male (%) [1, 3]: 31.6%
% inhibition male (individual replicates) R1 [1, 3]: 31.6%
% inhibition male (individual replicates) R3 [1, 3]: 5.8%
% inhibition male (individual replicates) R4 [1, 3]: 52.9%
HitlevelM [1, 4]: 1
Average inhibition female (%) [2, 3]: 24.1%
% inhibition female (individual replicates) R1 [2, 3]: 17.1%
% inhibition female (individual replicates) R3 [2, 3]: 12.9%
% inhibition female (individual replicates) R4 [2, 3]: 28.9%
HitlevelF [2, 5]: 0
